In brackets after ≈: the same amount, converted by molar mass.
How the values were obtained:
Format in all cases: physicochemical
[1] = Solubility of deucravacitinib in water
[2] = Solubility of deucravacitinib in solvent systems
Description: The solubility of deucravacitinib was examined in various solvent systems that included water, as water is an essential component in aqueous gels and creams. The example solvent systems in Table 2 were designed for cream formulations. The total percentage of the solvent system was up to 80% of the total % w/w of the composition, with the remaining up to 20% reserved for oil component(s). Water or acidic buffer (an aqueous solution) accounted for 25% w/w of the total composition.

[3] = Solubility of deucravacitinib in different solvents
Description: The solubility of deucravacitinib was examined in various solvents. […] As these solvents can, in some instances, result in skin irritation, they were not included in the development of the formulations described later in the Examples.

[4] = solvent: N-methyl-2-pyrrolidone (NMP)
[5] = solvent: dimethyl sulfoxide (DMSO)

[2H]C([2H])([2H])NC(=O)c1nnc(NC(=O)C2CC2)cc1Nc1cccc(-c2ncn(C)n2)c1OC [Deucravacitinib, 6-(cyclopropanecarboxamido)-4-((2-methoxy-3-(1-methyl-1H-1,2,4-triazol-3-yl)phenyl)amino)-N-(methyl-d3)pyridazine-3-carboxamide]
solubility [1]: ~9 µg/mL (≈ 21.2 µM) | solubility in water [1]: ~0.00009 % w/w | Deucravacitinib solubility ([2]; S1: water 25, PEG 400 38, DEGEE 15, benzyl alcohol 2 % w/w): 0.51 % w/w | Deucravacitinib solubility ([2]; S2: water 25, PEG 400 38, DMI 15, benzyl alcohol 2 % w/w): 0.48 % w/w | Deucravacitinib solubility ([2]; S3: water 25, PEG 400 23, DEGEE 15, DMI 15, benzyl alcohol 2 % w/w): 0.72 % w/w | Deucravacitinib solubility ([2]; S4: 0.1N hydrochloric acid solution 25, PEG 400 38, DEGEE 15, benzyl alcohol 2 % w/w): 0.77 % w/w | Deucravacitinib solubility ([2]; S5: 0.1N hydrochloric acid solution 25, PEG 400 38, DMI 15, benzyl alcohol 2 % w/w): 0.83 % w/w | Deucravacitinib solubility ([2]; S6: 0.1N hydrochloric acid solution 25, PEG 400 23, DEGEE 15, DMI 15, benzyl alcohol 2 % w/w): 1.33 % w/w | solubility (in words) ([2]; three-solvent system S3 (PEG 400, DEGEE, DMI) compared to two-solvent systems S1 and S2): greatest solubility | Deucravacitinib solubility ([3]; solvent: Caprylic/capric triglyceride): 0.01 % w/w | Deucravacitinib solubility ([3]; solvent: Diethylene glycol monoethyl ether (DEGEE)): 0.62 % w/w | Deucravacitinib solubility ([3]; solvent: Diisopropyl adipate): 0.01 % w/w | Deucravacitinib solubility ([3]; solvent: Dimethyl isosorbide (DMI)): 0.51 % w/w | Deucravacitinib solubility ([3]; solvent: Ethanol): 0.07 % w/w | Deucravacitinib solubility ([3]; solvent: Isopropanol): 0.02 % w/w | Deucravacitinib solubility ([3]; solvent: Isopropyl myristate): 0.00 % w/w | Deucravacitinib solubility [3, 4]: 10.09 % w/w | solubility (in words) [3, 4]: high solubility | Deucravacitinib solubility ([3]; solvent: Octyldodecanol): 0.01 % w/w | Deucravacitinib solubility ([3]; solvent: Polyethylene glycol (PEG) 400): 0.64 % w/w | Deucravacitinib solubility ([3]; solvent: Polysorbate 80): 0.31 % w/w | Deucravacitinib solubility ([3]; solvent: Propylene glycol): 0.16 % w/w | Deucravacitinib solubility [3, 5]: 9.49 % w/w | solubility (in words) [3, 5]: high solubility

— patent US20260130905A1, “TOPICAL FORMULATIONS OF DEUCRAVACITINIB” (Bristol-Myers Squibb Company, priority 2021, published 2026)
